Results reported in patent US20080004348A1, “Naphthalene compounds” (LES LABORATOIRES SERVIER, priority 2006, published 2008).

Key:
MT2 receptor = molecular target: T1, MT2 receptor (Homo sapiens, UniProt P49286); assay: Melatonin MT2 receptor binding study, 2-[125I]-iodomelatonin; settings: 2-[125I]-iodomelatonin radioligand
T1 sequence (P49286 1-362): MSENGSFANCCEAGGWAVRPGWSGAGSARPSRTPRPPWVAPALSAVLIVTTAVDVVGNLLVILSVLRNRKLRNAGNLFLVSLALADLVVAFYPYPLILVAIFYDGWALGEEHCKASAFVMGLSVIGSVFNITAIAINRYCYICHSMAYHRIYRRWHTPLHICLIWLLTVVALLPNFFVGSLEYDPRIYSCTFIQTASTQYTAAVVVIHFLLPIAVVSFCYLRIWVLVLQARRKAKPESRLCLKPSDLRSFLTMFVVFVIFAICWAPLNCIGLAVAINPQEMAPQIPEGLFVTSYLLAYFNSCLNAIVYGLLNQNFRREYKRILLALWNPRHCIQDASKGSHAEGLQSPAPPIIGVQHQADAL
Experimental: (§1) The MT1 or MT2 receptor binding experiments are carried out using 2-[^125I]-iodomelatonin as reference radioligand. The radioactivity retained is determined using a liquid scintillation counter.
(§2) Competitive binding experiments are then carried out in triplicate using the various test compounds. A range of different concentrations is tested for each compound. The results enable the binding affinities of the compounds tested (Ki) to be determined.

human 5-HT2C receptor = molecular target: T2, human 5-HT2C receptor (Homo sapiens, UniProt P28335); assay: Serotoninergic 5-HT2C receptor binding study, [3H]-mesulergine; settings: membranes from CHO cells expressing human 5-HT2C
T2 construct: expressed in transfected cells
T2 sequence (P28335 33-458): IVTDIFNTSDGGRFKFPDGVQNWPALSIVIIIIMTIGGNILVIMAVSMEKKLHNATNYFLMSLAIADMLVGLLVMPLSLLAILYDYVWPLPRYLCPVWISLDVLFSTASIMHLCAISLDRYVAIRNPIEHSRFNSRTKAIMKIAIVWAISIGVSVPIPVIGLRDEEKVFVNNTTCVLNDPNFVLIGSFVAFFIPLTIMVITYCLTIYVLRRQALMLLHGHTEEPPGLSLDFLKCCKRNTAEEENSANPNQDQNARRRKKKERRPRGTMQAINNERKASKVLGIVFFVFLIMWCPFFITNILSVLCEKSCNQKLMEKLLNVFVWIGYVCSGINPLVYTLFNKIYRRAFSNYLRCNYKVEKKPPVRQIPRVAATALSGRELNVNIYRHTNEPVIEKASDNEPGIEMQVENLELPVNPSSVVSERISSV
Experimental: The affinity of the compounds for the human 5-HT2C receptor is evaluated on membrane preparations from CHO cells stably expressing that receptor.
Incubation is carried out in 50mM TRIS buffer, pH 7.4 containing 10 mM MgCl2 and 0.1% BSA, in the presence of [^3H]-mesulergine (InM) and 25 fmol/ml of receptor. Non-specific binding is determined in the presence of 10 μM mianserin.
The reaction is stopped by the addition of 50 mM TRIS buffer, pH 7.4 followed by a filtration step and 3 successive rinses: the radioactivity bound to the membranes remaining on the filters (GF/B pretreated with 0.1% PEI) is determined by liquid scintillation counting.

MT1 receptor = MT1 receptor (Homo sapiens, UniProt P48039); assay: Melatonin MT1 receptor binding study, 2-[125I]-iodomelatonin; settings: 2-[125I]-iodomelatonin radioligand
MT1 receptor, sequence (P48039 whole entry): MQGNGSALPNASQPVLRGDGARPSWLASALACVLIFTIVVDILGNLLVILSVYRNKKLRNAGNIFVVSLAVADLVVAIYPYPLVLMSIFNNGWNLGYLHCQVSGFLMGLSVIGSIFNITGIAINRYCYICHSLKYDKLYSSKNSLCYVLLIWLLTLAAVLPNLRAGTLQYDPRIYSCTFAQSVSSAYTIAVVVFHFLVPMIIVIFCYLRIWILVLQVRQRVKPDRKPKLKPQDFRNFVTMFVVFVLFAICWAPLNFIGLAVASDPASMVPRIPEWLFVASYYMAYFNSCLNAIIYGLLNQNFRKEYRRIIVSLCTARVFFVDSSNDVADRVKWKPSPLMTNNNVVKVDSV
Experimental: as §1, §2

Ki (MT2 receptor): 8.9 nM | Ki (human 5-HT2C receptor): 26000 nM | Ki (MT1 receptor): 4.9 nM
Compound: COCC(CNC(C)=O)c1cccc2ccc(OC)cc12 (stereo not drawn) [Example 6, N-[3-Methoxy-2-(7-methoxy-1-naphthyl)propyl]acetamide]
